Assays:
[1] = test system: barnyard grass; assay: Test Example 3: herbicidal effect by foliage application, Wagner pot (Table 18, symbol H); type: in vivo, barnyard grass (Echinochloa crus-galli); conditions: 320 g/ha
How it was run: (§1)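 Plants were sown in alluvial soil held under 0.1–0.5 cm standing water and grown 14 days in a greenhouse at 25–30 °C. An emulsifiable formulation, water-diluted to the set dose, was then sprayed onto the foliage, and effects were scored three weeks later using previously defined criteria.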

[2] = test system: Chinese sprangletop; assay: Test Example 3: herbicidal effect by foliage application, Wagner pot (Table 18, symbol D); type: in vivo, chinese sprangletop (Leptochloa chinensis); conditions: 320 g/ha
How it was run: as §1

[3] = test system: rice flat sedge; assay: Test Example 3: herbicidal effect by foliage application, Wagner pot (Table 18, symbol E); type: in vivo, rice flat sedge (Cyperus iria); conditions: 320 g/ha
How it was run: as §1

[4] = test system: southern crabgrass; assay: Test Example 4: herbicidal effect by soil treatment (Table 19, symbol F); type: in vivo, southern crabgrass (Digitaria ciliaris); conditions: AAH 320 g/ha
How it was run: (§2)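 Scoring uses the grading scale of an earlier test, three weeks post-application. Treatment consists of spraying a diluted emulsion formulation across the surface of sterilized diluvial soil in which seeds are buried near 1.5 cm deep; boxes are kept in a greenhouse between 25° C. and 30° C.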

[5] = test system: barnyard grass; assay: Test Example 4: herbicidal effect by soil treatment (Table 19, symbol H); type: in vivo, barnyard grass (Echinochloa crus-galli); conditions: AAH 320 g/ha
How it was run: as §2

[6] = test system: wild oat; assay: Test Example 4: herbicidal effect by soil treatment (Table 19, symbol I); type: in vivo, wild oat (Avena fatua); conditions: AAH 320 g/ha
How it was run: as §2

[7] = test system: blackgrass; assay: Test Example 4: herbicidal effect by soil treatment (Table 19, symbol J); type: in vivo, blackgrass (Alopecurus myosuroides); conditions: AAH 320 g/ha
How it was run: as §2

[8] = test system: Italian ryegrass; assay: Test Example 4: herbicidal effect by soil treatment (Table 19, symbol K); type: in vivo, Italian ryegrass (Lolium multiflorum); conditions: AAH 320 g/ha
How it was run: as §2

[9] = test system: windgrass; assay: Test Example 4: herbicidal effect by soil treatment (Table 19, symbol L); type: in vivo, windgrass (Apera spica-venti); conditions: AAH 320 g/ha
How it was run: as §2

[10] = test system: velvetleaf; assay: Test Example 4: herbicidal effect by soil treatment (Table 19, symbol M); type: in vivo, velvetleaf (Abutilon theophrasti); conditions: AAH 320 g/ha
How it was run: as §2

[11] = test system: redroot pigweed; assay: Test Example 4: herbicidal effect by soil treatment (Table 19, symbol N); type: in vivo, redroot pigweed (Amaranthus retroflexus); conditions: AAH 320 g/ha
How it was run: as §2

[12] = test system: lambsquarters; assay: Test Example 4: herbicidal effect by soil treatment (Table 19, symbol O); type: in vivo, lambsquarters (Chenopodium album); conditions: AAH 320 g/ha
How it was run: as §2

[13] = test system: chickweed; assay: Test Example 4: herbicidal effect by soil treatment (Table 19, symbol P); type: in vivo, common chickweed (Stellaria media); conditions: AAH 320 g/ha
How it was run: as §2

[14] = test system: false cleavers; assay: Test Example 4: herbicidal effect by soil treatment (Table 19, symbol Q); type: in vivo, false cleavers (Galium spurium); conditions: AAH 320 g/ha
How it was run: as §2

[15] = test system: persian speedwell; assay: Test Example 4: herbicidal effect by soil treatment (Table 19, symbol R); type: in vivo, Persian speedwell (Veronica persica); conditions: AAH 320 g/ha
How it was run: as §2

[16] = test system: southern crabgrass; assay: Test Example 5: herbicidal effect by foliage application, plastic box (Table 20, symbol F); type: in vivo, southern crabgrass (Digitaria ciliaris); conditions: foliage application, 320 g/ha, 3 weeks after application
How it was run: (§3)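 Post-emergence foliar test in sterilized diluvial soil. Compound applied as water-diluted emulsion at a predetermined rate to 14-day-old plants; evaluation at three weeks.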

[17] = test system: green foxtail; assay: Test Example 5: herbicidal effect by foliage application, plastic box (Table 20, symbol G); type: in vivo, green foxtail (Setaria viridis); conditions: foliage application, 320 g/ha, 3 weeks after application
How it was run: as §3

[18] = test system: barnyard grass; assay: Test Example 5: herbicidal effect by foliage application, plastic box (Table 20, symbol H); type: in vivo, barnyard grass (Echinochloa crus-galli); conditions: foliage application, 320 g/ha, 3 weeks after application
How it was run: as §3

[19] = test system: wild oat; assay: Test Example 5: herbicidal effect by foliage application, plastic box (Table 20, symbol I); type: in vivo, wild oat (Avena fatua); conditions: foliage application, 320 g/ha, 3 weeks after application
How it was run: as §3

[20] = test system: blackgrass; assay: Test Example 5: herbicidal effect by foliage application, plastic box (Table 20, symbol J); type: in vivo, blackgrass (Alopecurus myosuroides); conditions: foliage application, 320 g/ha, 3 weeks after application
How it was run: as §3

[21] = test system: Italian ryegrass; assay: Test Example 5: herbicidal effect by foliage application, plastic box (Table 20, symbol K); type: in vivo, Italian ryegrass (Lolium multiflorum); conditions: foliage application, 320 g/ha, 3 weeks after application
How it was run: as §3

[22] = test system: windgrass; assay: Test Example 5: herbicidal effect by foliage application, plastic box (Table 20, symbol L); type: in vivo, windgrass (Apera spica-venti); conditions: foliage application, 320 g/ha, 3 weeks after application
How it was run: as §3

[23] = test system: velvetleaf; assay: Test Example 5: herbicidal effect by foliage application, plastic box (Table 20, symbol M); type: in vivo, velvetleaf (Abutilon theophrasti); conditions: foliage application, 320 g/ha, 3 weeks after application
How it was run: as §3

[24] = test system: lambsquarters; assay: Test Example 5: herbicidal effect by foliage application, plastic box (Table 20, symbol O); type: in vivo, lambsquarters (Chenopodium album); conditions: foliage application, 320 g/ha, 3 weeks after application
How it was run: as §3

[25] = test system: false cleavers; assay: Test Example 5: herbicidal effect by foliage application, plastic box (Table 20, symbol Q); type: in vivo, false cleavers (Galium spurium); conditions: foliage application, 320 g/ha, 3 weeks after application
How it was run: as §3

[26] = test system: persian speedwell; assay: Test Example 5: herbicidal effect by foliage application, plastic box (Table 20, symbol R); type: in vivo, Persian speedwell (Veronica persica); conditions: foliage application, 320 g/ha, 3 weeks after application
How it was run: as §3

How did the “herbicidal effect on H (barnyard grass), rating 0-5” value [1] turn out when `CCCC(=O)Oc1c(OC)nn(C)c(=O)c1-c1c(-c2ccc3c(c2)OCCO3)sc2ccccc12` [1-199] was run?
Its value is 0 (Herbicidal rate of 5% or less (almost no effect)).

What about the “herbicidal effect on D (Chinese sprangletop), rating 0-5” value [2] of the same compound?
Its value is 0 (Herbicidal rate of 5% or less (almost no effect)).

What about the “herbicidal effect on E (rice flat sedge), rating 0-5” value [3] of the same compound?
Its value is 5 (Herbicidal rate of 90% or more (almost completely withered)).

What about the “F: southern crabgrass, herbicidal effect rating” value [4] of the same compound?
Its value is 1 (Herbicidal rate of 5% or more and less than 20%).

And the “H: barnyard grass, herbicidal effect rating” value [5]?
The value was 2 (Herbicidal rate of 20% or more and less than 40%).

What about the “I: wild oat, herbicidal effect rating” value [6] of the same compound?
Its value is 0 (Herbicidal rate of 5% or less (almost no effect)).

And the “J: blackgrass, herbicidal effect rating” value [7]?
The value was 0 (Herbicidal rate of 5% or less (almost no effect)).

And the “K: Italian ryegrass, herbicidal effect rating” value [8]?
Its value is 0 (Herbicidal rate of 5% or less (almost no effect)).

What about the “L: windgrass, herbicidal effect rating” value [9] of the same compound?
The value was 0 (Herbicidal rate of 5% or less (almost no effect)).

And the “M: velvetleaf, herbicidal effect rating” value [10]?
The value was 0 (Herbicidal rate of 5% or less (almost no effect)).

And the “N: redroot pigweed, herbicidal effect rating” value [11]?
The value was 0 (Herbicidal rate of 5% or less (almost no effect)).

What about the “O: lambsquarters, herbicidal effect rating” value [12] of the same compound?
The value was 3 (Herbicidal rate of 40% or more and less than 70%).

And the “P: chickweed, herbicidal effect rating” value [13]?
Its value is 4 (Herbicidal rate of 70% or more and less than 90%).

What about the “Q: false cleavers, herbicidal effect rating” value [14] of the same compound?
Its value is 0 (Herbicidal rate of 5% or less (almost no effect)).

And the “R: persian speedwell, herbicidal effect rating” value [15]?
The value was 5 (Herbicidal rate of 90% or more (almost completely withered)).

And the “effect on southern crabgrass (F)” value [16]?
The value was 0 (Herbicidal rate of 5% or less (almost no effect)).

What about the “effect on green foxtail (G)” value [17] of the same compound?
Its value is 0 (Herbicidal rate of 5% or less (almost no effect)).

What about the “effect on barnyard grass (H)” value [18] of the same compound?
Its value is 0 (Herbicidal rate of 5% or less (almost no effect)).

And the “effect on wild oat (I)” value [19]?
The value was 0 (Herbicidal rate of 5% or less (almost no effect)).

What about the “effect on blackgrass (J)” value [20] of the same compound?
The value was 0 (Herbicidal rate of 5% or less (almost no effect)).

And the “effect on Italian ryegrass (K)” value [21]?
The value was 0 (Herbicidal rate of 5% or less (almost no effect)).

What about the “effect on windgrass (L)” value [22] of the same compound?
Its value is 0 (Herbicidal rate of 5% or less (almost no effect)).

And the “effect on velvetleaf (M)” value [23]?
The value was 0 (Herbicidal rate of 5% or less (almost no effect)).

And the “effect on lambsquarters (O)” value [24]?
Its value is 0 (Herbicidal rate of 5% or less (almost no effect)).

And the “effect on false cleavers (Q)” value [25]?
Its value is 0 (Herbicidal rate of 5% or less (almost no effect)).

And the “effect on persian speedwell (R)” value [26]?
Its value is 4 (Herbicidal rate of 70% or more and less than 90%).

Source: patent publication US20230085307A1, “PYRIDAZINONE COMPOUND AND HERBICIDE” (NISSAN CHEMICAL CORPORATION, priority 2019, published 2023)
